# Measurements published in patent publication US20240315992A1, “AMINOXY ACID-BASED ANTIBACTERIAL COMPOUNDS AND METHODS THEREOF” (The University of Hong Kong, priority 2023, published 2024).
# Key:
# [1] = tested on: Staphylococcus aureus strain USA300-LAC; assay: Non-lethal bacteremia model, bacteria loads in organs; assay type: in vivo, Balb/c mice; details: 10 mg/kg/day intraperitoneal, 4 days
# Protocol: FIG. 9 are the bar graphs showing compound 8 and compound 35 reduce bacteria loads in different organs of the mice infected by Staphylococcus aureus. Grubb's test was performed to test for outliers. Statistical analysis was performed with two-sided paired t test. (*p<0.05).
# Staphylococcus aureus strain USA300-LAC were cultured to the early exponential phase of growth, washed twice with sterile phosphate-buffered saline solution (PBS), and resuspended in PBS at 5×10^6 CFU/200 μL for non-lethal bacteremia model. The female Balb/c mice, 6-8 weeks, were infected intravenously (i.v.) through the tail vein with Staphylococcus aureus and randomized into three groups (N=14 for vehicle; N=12 for compound 8 and compound 35 respectively). One hour after infection, mice received intraperitoneal injections of compound 8 or compound 35 (10 mg/kg/day) or an injection of buffer (PBS with 2.5% DMSO and 2% Tween-80) as the control. The compound and injection buffer treatments were performed twice per day at 12-h intervals. The challenged mice were monitored for 4 days, at which point all the remaining mice were sacrificed. The CFU of S. aureus were determined in heart, liver, kidney and lung by plating in series dilution. Grubb's test was performed to test for outliers. Statistical analysis was performed with two-sided paired t test. (*p<0.05).
# [2] = tested on: Staphylococcus aureus Mu3 cytoplasmic calcium; assay: Calcium influx monitored by Fluo-4-AM; assay type: cell-based; details: Fluo-4-AM fluorescence
# Protocol: FIG. 12 is a line graph showing compound 8 can induce calcium influx into cytoplasm. The fluorescence of the Fluo-4-AM loaded in Staphylococcus aureus Mu3 was monitored for 10 minutes. The average of fluorescence in this period was assigned as F0. At t=10 minutes, different concentration of compound 8 was added to bacteria medium and then the fluorescence was further monitored for 40 minutes. Calcium ion transporter ionomycin was used as the positive control. The fluorescence Ft was normalized to initial fluorescence F0. Data represented the mean of biological triplicates.
# Briefly, an overnight culture of MRSA Mu3 was sub-cultured 1:100 in fresh CAMH and regrown to exponential phase. The bacteria were washed twice and then re-suspended in PBS (OD595=0.5) containing 5 μM Fluo-4-AM. The bacteria were further incubated at 37° C. in dark for 2 hours before they were washed twice and resuspended into PBS containing 0.5 mM calcium chloride. 200 μL bacteria culture were then added into 96-well plate for each well. The plate was then pre-warmed and the fluorescence was monitored for 10 minutes for background measurement (excitation wavelength: 485 nm, emission wavelength: 535 nm). Fluorescence signal was recorded by Beckman Coulter DTX 880 Multimode Detector. Compounds were then added to 96-well plate and the fluorescence was further monitored for 5 minutes. […]
# [3] = tested on: Staphylococcus aureus ATCC 29213 cytoplasm pH; assay: Cytoplasmic pH measurement with pHluorin; assay type: cell-based; details: pHluorin fluorescence ratio, 5 minutes incubation
# Protocol: Cytoplasm pH was monitored by pH sensitive fluorescent protein over time (s). 2 μM nigericin (Nig) and 2 μM valinomycin (Val) were used as positive control and 1% DMSO was used as negative control. Data represented the mean±S.D. of biological triplicates. Statistical analysis was performed by one-way ANOVA with Dunnett's post-test to calculate p-values adjusted for multiple comparisons with DMSO negative control (*p<0.05; **p<0.01; ***p<0.001).
# To construct pHluorinsarA plasmid, pGLsarA plasmid vector was PCR amplified using primers pGL-f (CTGCAGGCATGCAAG; SEQ ID NO: 1) and pGL-r ([…]: SEQ ID NO: 2). […]
# A pHlourin standard curve correlating pH and fluorescence ratio was constructed. Briefly, the emission at 510 nm was monitored with excitation wavelengths at 410 nm and 470 nm simultaneously following previously described protocol^18 Overnight culture Staphylococcus aureus ATCC 29213 was sub-cultured 1:100 in fresh CAMH medium and regrown to exponential phase. […] Fluorescence ratio (Excitation wavelength 410 nm/470 nm; emission wavelength 510 nm) was then measured in 1 mL cuvette using Hitachi F-4500 Florescence Spectrometer and plotted against the pH of the buffer. […]
structure (smiles),measurement,setting,value
CC(C)C[C@H](ONC(=O)[C@@H](COCc1ccccc1)ONC(=O)c1cc(C(F)(F)F)cc(C(F)(F)F)c1)C(=O)Nc1ccccc1 [Compound 8],bacteria load in heart,[1],can reduce the bacteria load
same,bacteria load in lung,[1],can reduce the bacteria load
same,calcium influx into cytoplasm,[2],can induce calcium influx into cytoplasm in concentration dependent manner
same,cytoplasm pH,[3],can acidify Staphylococcus aureus cytoplasm
